TGI and GI50 data for 19 molecules are collected here from PubChem BioAssay (NCI).

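Assay format: 96-well plates, 48-hour exposure. GI50 marks 50% less growth. The concentration for full growth arrest is given as TGI.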

Among the test systems are ACHN renal; LOX IMVI melanoma; OVCAR-5 ovarian; NCI-H460 lung; T-47D breast; UACC-62 melanoma; 786-0 renal.
Holding throughout (test): growth of human tumour cells (NCI), 48 h

`CC(C)=CCS(=O)c1ccccc1NC1=CC(=O)CC(C)(C)C1` (centres undefined): the TGI with ACHN renal, in the experiment with LOX IMVI melanoma, with OVCAR-5 ovarian, in the experiment on NCI-H460 lung, in the experiment on T-47D breast and in the experiment with UACC-62 melanoma was greater than 100 µM in each case. Besides, the TGI with 786-0 renal was greater than 100 µM.

For the molecule `COC1=C(Br)[C@H](O)[C@@]2(C=C1Br)CC(C(=O)NCCCCCN=C(N)N)=NO2`, the TGI with ACHN renal, in the experiment with LOX IMVI melanoma, in the experiment on OVCAR-5 ovarian, in the experiment on NCI-H460 lung, with T-47D breast and in the experiment with UACC-62 melanoma was greater than 10 µM in each case. The TGI in the experiment on 786-0 renal was greater than 10 µM.

Turning to `C[C@H]1[C@H](C)CC[C@]2(C)CC[C@]3(C)C(=C[C@@H](O)[C@@H]4[C@@]5(C)[C@H](O)[C@@H](O)[C@H](O)C(C)(C)[C@@H]5CC[C@]43C)[C@H]12`, the TGI in the experiment on ACHN renal, in the experiment on LOX IMVI melanoma, in the experiment with OVCAR-5 ovarian, in the experiment on NCI-H460 lung, in the experiment on T-47D breast and in the experiment with UACC-62 melanoma was greater than 100 µM in each case. In the experiment on 786-0 renal, this molecule returned a TGI greater than 100 µM. In the experiment with T-47D breast, the GI50 is 18.7 µM.

In the case of `CC1=NC(=Cc2ccc(O)cc2)C(=O)N1n1c(-c2ccccc2)nc2ccccc2c1=O`, the TGI in the experiment on ACHN renal, with LOX IMVI melanoma, in the experiment on NCI-H460 lung, in the experiment with T-47D breast, with UACC-62 melanoma and in the experiment on 786-0 renal was greater than 100 µM each time.

For `N#CSc1nc[nH]c1C(N)=O`, the TGI with ACHN renal, in the experiment on LOX IMVI melanoma, in the experiment on OVCAR-5 ovarian, in the experiment on NCI-H460 lung, with T-47D breast and in the experiment on UACC-62 melanoma was greater than 100 µM throughout. The TGI in the experiment on 786-0 renal stood at 98.8 µM.

With `COc1ccc(CCNC2=CC(=O)c3ncccc3C2=O)cc1OC`, the TGI in the experiment with ACHN renal stood at 19.8 µM; in the experiment with LOX IMVI melanoma it was 3.14 µM; in the experiment on OVCAR-5 ovarian, 6.63 µM; in the experiment with NCI-H460 lung, 1.75 µM; in the experiment with T-47D breast, 24.7 µM; in the experiment with UACC-62 melanoma, 1.24 µM. Also, the TGI with 786-0 renal came out at 21.2 µM.

As for `CCN1c2nc3ccccc3nc2N(CC)c2nc3ccccc3nc21`, the TGI with ACHN renal, in the experiment on LOX IMVI melanoma, in the experiment with OVCAR-5 ovarian, in the experiment on NCI-H460 lung, in the experiment with UACC-62 melanoma and in the experiment with 786-0 renal was greater than 100 µM in each case.

With `CCOC(=O)CC1c2ccc(O)cc2OC(=O)C1c1ccc([N+](=O)[O-])cc1` (centres undefined), the TGI was 71.7 µM in the experiment with ACHN renal; greater than 100 µM in the experiment with LOX IMVI melanoma; greater than 100 µM in the experiment on OVCAR-5 ovarian; greater than 100 µM in the experiment with NCI-H460 lung; 60 µM with T-47D breast; 84.4 µM in the experiment with UACC-62 melanoma. The molecule further had a TGI with 786-0 renal greater than 100 µM.

For the molecule `COc1ccc2c(c1)CCc1c-2[nH]c2ccc(OC)cc12`, the TGI in the experiment with ACHN renal, in the experiment with LOX IMVI melanoma, with OVCAR-5 ovarian, in the experiment on NCI-H460 lung, in the experiment with T-47D breast and in the experiment on UACC-62 melanoma was greater than 100 µM throughout. Moreover, the TGI with 786-0 renal was greater than 100 µM.

Turning to `CSC1=C(SC)SC(=C2SC3=C(SC(=C4SCCS4)S3)S2)S1`, the TGI in the experiment with ACHN renal, in the experiment on LOX IMVI melanoma, in the experiment on OVCAR-5 ovarian, with NCI-H460 lung, in the experiment on T-47D breast and in the experiment on UACC-62 melanoma was greater than 100 µM in each case. Further, in the experiment with 786-0 renal, the TGI is greater than 100 µM.

With `O=C(O)c1ccc(NNc2cc(=O)[nH]c(=O)[nH]2)cc1`, the TGI in the experiment on ACHN renal, in the experiment on LOX IMVI melanoma, in the experiment on OVCAR-5 ovarian, in the experiment on NCI-H460 lung, in the experiment with T-47D breast and in the experiment with UACC-62 melanoma was greater than 100 µM in each case. For the same molecule, the TGI with 786-0 renal was greater than 100 µM.

Take `CC(=O)Oc1ccccc1-c1cc2ccccc2oc1=O`: the TGI with ACHN renal, in the experiment on LOX IMVI melanoma, in the experiment with OVCAR-5 ovarian, with NCI-H460 lung, in the experiment with T-47D breast and with 786-0 renal was greater than 100 µM each time.

As for `COc1ccc(C[N+]23C(CC[C@H]2c2ccccc2)CC[C@H]3c2ccccc2)cc1` (some centres undefined), the TGI is greater than 100 µM in the experiment with ACHN renal; 44.7 µM with LOX IMVI melanoma; greater than 100 µM with OVCAR-5 ovarian; 61.5 µM with T-47D breast; greater than 100 µM with 786-0 renal.

As to `O=C(C(=O)N1CCc2ccccc21)c1c[nH]c2ccccc12`, the TGI with ACHN renal, in the experiment on LOX IMVI melanoma, with OVCAR-5 ovarian, in the experiment with NCI-H460 lung, in the experiment with T-47D breast and in the experiment with UACC-62 melanoma was greater than 10 µM each time. The TGI in the experiment on 786-0 renal is greater than 10 µM.

As to `CCOC(=O)c1nc2c(Cl)c3ncccc3cc2[nH]c1=O`, the TGI is greater than 100 µM in the experiment with ACHN renal; greater than 100 µM with OVCAR-5 ovarian; 65.8 µM with NCI-H460 lung; 50.4 µM in the experiment on UACC-62 melanoma; greater than 100 µM with 786-0 renal.

For `CCOC(=O)C1=C(Nc2cccc(OC)c2)OCC1=O`, the TGI with ACHN renal, with LOX IMVI melanoma, in the experiment on NCI-H460 lung, in the experiment on T-47D breast, with UACC-62 melanoma and in the experiment with 786-0 renal was greater than 100 µM throughout.

On to `COc1ccc2c(c1C)C(=O)C(O)(CC=C(C)C)O2` (centres undefined), for which the TGI in the experiment with ACHN renal, with LOX IMVI melanoma, in the experiment on OVCAR-5 ovarian, in the experiment on NCI-H460 lung, in the experiment with T-47D breast and with UACC-62 melanoma was greater than 100 µM throughout. Besides, the TGI in the experiment on 786-0 renal was greater than 100 µM.

Turning to `COc1ccc2c(c1)CC[C@@H]1[C@@H]2CC[C@]2(C)C(=O)/C(=C/c3ccc(OC)c(OC)c3)C[C@@H]12`, the TGI in the experiment with ACHN renal, with OVCAR-5 ovarian, with NCI-H460 lung, in the experiment with UACC-62 melanoma and with 786-0 renal was greater than 100 µM in each case.

For the molecule `COc1ccc2c(c1)CN1C(=N2)CSC1c1cc([N+](=O)[O-])ccc1Cl` (centres undefined), the TGI is greater than 100 µM with ACHN renal; greater than 100 µM in the experiment on LOX IMVI melanoma; greater than 100 µM in the experiment with OVCAR-5 ovarian; greater than 100 µM with NCI-H460 lung; greater than 100 µM with T-47D breast; 57.5 µM with UACC-62 melanoma. The molecule also displayed a TGI in the experiment on 786-0 renal greater than 100 µM.
